Assay results published in patent US10626126B2, “Compounds” (Pulmocide Limited, priority 2016, dated 2020).
pIC50: −log10 of the molar value. Entries after “also recorded” stand apart in the source; their conditions may differ.

What was measured:
RSV A2 strain = experiment: RSV A2 induced CPE in HEp2 cells; format: cell-based; conditions: human respiratory syncytial virus; for pIC50: HEp-2, 120 h, 5 days; for inhibition at 0.01 µg/mL: HEp-2, at 0.01 μg/mL
Description: (§1) HEp2 cells were seeded (10^3/well/50 μL) in 384-well plates (Catalogue number 353962, BD Falcon, Oxford, UK) in 5% FBS-DMEM (containing 2 mM L-glutamine and 1 mM sodium pyruvate) one day before infection. […] Simultaneously, test compounds (0.5 μL DMSO solution) were added to 100 μL of HEp2 cell culture with virus solution to provide a final DMSO solution of 0.5%. […] Sigma-Aldrich, Dorset, UK) was added to each well and the plate incubated for a further 6 hr (37° C./5% CO2). The fluorescence of each well [545 nm (excitation)/590 nm (emission)] was determined using a multi-scanner (Clariostar: BMG, Buckinghamshire, UK). The percentage inhibition for each well was calculated and the IC50, IC75 and IC90 values were calculated from the concentration-response curve generated for each test compound.

RSV B Washington strain = experiment: RSV B induced CPE in HEp2 cells; format: cell-based; conditions: human respiratory syncytial virus; for pIC50: HEp-2, 144 h, 6 days; for inhibition at 0.1 µg/mL: HEp-2, at 0.1 μg/mL
Description: as §1

[1] = Cell viability: resazurin assay; format: cell-based; conditions: human, HEp2 cells
Description: HEp2 cells were seeded in 384-well plates (10^3/well/50 μL; BD Falcon Ref 353962) in FBS DMEM (5%, containing 2 mM L-glutamine and 1 mM sodium pyruvate) one day before experimentation. Serum-free DMEM (50 μL) was added to test wells, while for control wells the media was removed and sterile water (100 μL) added. Test compounds (0.5 μL DMSO solution) were added to give a final DMSO concentration of 0.5%. HEp2 cells were incubated with each test compound for 5 days (37° C./5% CO2 in 2.5% FBS) and then resazurin stock solution (5 μL; 0.03%) was added to each well and the plate incubated for a further 6 hr (37° C./5% CO2). The fluorescence of each well at 545 nm (excitation) and 590 nm (emission) was determined using a multi-scanner (Clariostar: BMG Labtech). The percentage loss of cell viability was calculated for each well relative to vehicle (0.5% DMSO) treatment. Note that any apparent increase in cell viability associated with test compound treatment relative to vehicle is consequently tabulated as a negative percentage. Where appropriate, a CC50 value was calculated from the concentration-response curve generated from the concentration-response curve for each test compound.

RSV A2 [2] = experiment: RSV F protein expression in BEAS2B bronchial epithelial cells; format: cell-based; conditions: human respiratory syncytial virus, BEAS-2B, n=2
Description: An early event which follows the infection of epithelial cells by RSV is the expression of RSV F-protein on the cells' surface. BEAS2B cells were grown in 96 well plates. […] Supernatant was aspirated and the cells were fixed with 4% formaldehyde (100 μL in PBS solution) for 20 min, washed 3 times with washing buffer (200 μL; PBS containing 0.05% Tween-20) and incubated with blocking solution (100 μL; 5% BSA in washing buffer) for 1 hr. […] No. ab43812, Abcam plc, Cambridge, UK) F-fusion protein antibody (50 μL; prepared at a 1:2000 dilution in 5% BSA/washing buffer). After washing, cells were incubated with an HRP-conjugated anti-mouse IgG antibody (50 μL prepared at a 1:2000 dilution in 5% BSA in PBS; lot 00095437, Cat. No. P0447, Dako UK Ltd, Cambridgeshire, UK) for 1 hr. […] The resultant signal was determined colourimetrically (OD: 450 nm with a reference wavelength of 655 nm) in a microplate reader (Multiskan FC®, ThermoFisher Scientific). […] After washing with PBS (200 μL) 2 times, 1% SDS (100 μL) was added to each well, and plates were shaken lightly for 1 hr prior to reading the absorbance at 595 nm. The measured OD450-655 readings were corrected for cell number by dividing the OD450-655 by the OD595 readings. The percentage inhibition for each well was calculated and the IC50 value derived from the concentration-response curve generated for each test compound.

RSV NS-1 gene = experiment: RSV infection in cotton rats: RSV NS-1 gene expression in lung (qRT-PCR); format: in vivo, Sigmodon hispidus cotton rats; conditions: intranasal
hRSV/A/Long = experiment: RSV infection in cotton rats: viral titre in lung (plaque assay); conditions: for Virus titre in lung, Geometric Mean / Virus titre in lung, Median: day 4 post infection
Description: (§2) Male Sigmodon hispidus cotton rats between 6 and 8 weeks of age were infected with hRSV/A/Long (ATCC, Manassas, Va.; 10^5 pfu) in a volume of 0.1 mL of sucrose stabilizing media. Test compounds were dissolved in 100% DMSO (at 3.3, 10, 33 and 100 mg/mL), then diluted (1:10 in isotonic saline to achieve 10% DMSO in all treatments) and sonicated to produce suspensions which were administered intranasally (50 μL) by pipette 4 hr before infection (on day 0), and then on days 1, 2 and 3 post infection. Four days after RSV challenge, the animals were euthanised and the lungs removed.
The supernatants of lung homogenates were diluted 1:10 and 1:100 in Eagle (E)-MEM. Confluent HEp2 monolayers in 24-well plates were infected in duplicate (50 μL of sample per well) starting with undiluted (neat) samples followed by diluted homogenates. After incubation for 1 hr (37° C./5% CO2) wells were overlaid with 0.75% methylcellulose medium and plates replaced in the 37° C. incubator. After incubation (for 4 days), the overlay was removed, the cells fixed with 0.1% crystal violet stain (for 1 hr) and then rinsed and air-dried. Plaques were counted and viral titers were expressed as plaque forming units per gram (pfu.g^−1) of tissue.

RANTES gene = experiment: RSV infection in cotton rats: RANTES gene expression in lung (qRT-PCR); conditions: intranasal
Description: as §2
Total RNA was also extracted from homogenized lung tissue (RNeasy purification kit; Qiagen) and a sample (1 μg) used to prepare cDNA using QuantiTect Reverse Transcription Kit (Qiagen). For real-time PCR reactions (RSV NS-1 and RANTES genes) the QuantiFast SYBR® Green PCR Kit (Qiagen) was used in a final volume of 25 μL, with final primer concentrations of 0.5 μM. Amplifications were performed on a Bio-Rad iCycler for 1 cycle of 950C for 3 min, followed by 40 cycles of 950C for 10 sec, 600C for 10 sec, and 720C for 15 sec. Baseline cycles and cycle threshold (Ct) were calculated by the iQ5 software in the PCR Base Line Subtracted Curve Fit mode.
The standard curves were developed using the serially diluted cDNA sample most enriched in the transcript of interest (e.g., lungs from day 4 post-primary RSV infection). The Ct values were plotted against log10 cDNA dilution factor and the curves were used to convert the Ct values obtained for different samples to relative expression units, which were then normalized against the level of R-actin mRNA (“housekeeping gene”) expressed in the corresponding sample. The mRNA levels were expressed as the geometric mean±SEM for all animals in a group.

RSV A2 [3] = experiment: Virus titre in air-liquid interface (ALI) cultured bronchial epithelial cells; conditions: for Virus titre in apical wash, geometric mean: late intervention (days 3-7), 0.1 mg/mL; for inhibition of virus titre in ALI culture (in words): late stage intervention
Description: ALI cultured human bronchial epithelial cells were sourced from Epithelix Sarl (Geneva, Switzerland) and maintained by changing the basal media every 3-4 days, whilst the apical surface was washed once weekly with PBS. On day 0, the apical surface of each well was washed once with sterile PBS (300 μL) and the inserts transferred to new 24-well plates containing fresh MucilAir culture medium (780 μL; EP04MM). RSV A2 (50 μL; diluted in MucilAir culture medium to give a final MOI of 0.01) was added to cells for one hr (37° C./5% CO2). For the purposes of standardizing MOI calculations, each MucilAir insert was estimated to contain 2×10^5 apical facing cells per well. Virus inoculum was removed with a pipette and inserts were washed twice with sterile PBS (300 μL).
Sampling was conducted by adding sterile PBS (300 μL) to the apical surface of each well for 5 min. The apical sample was then removed and transferred to tubes containing 50% sucrose dissolved in PBS (100 μL) before being stored at −80° C. This harvesting procedure was repeated daily beginning on day 0 and concluding on day 10.
The test compound (50 μL in 0.5% DMSO/PBS) was added to the apical surface and incubated (37° C./5% CO2) for 1 hr before being removed. Vehicle treatments (0.5% DMSO/PBS) were performed on the corresponding apical surfaces to ensure each well received the same number of manipulations. On day 5, the basal media was removed from each well and replenished with fresh MucilAir culture media as a necessary maintenance step for ALI culture cells.
Virus titre was quantified by plaque assay. HEp2 cells were grown in 24-well plates (Corning) for 48 hr prior to infection in DMEM containing 10% FBS until they attained 100% confluency.
Collected samples were thawed at RT and ten-fold serial dilutions were prepared in serum-free DMEM. The growth medium from HEp2 cells was aspirated and replaced with 300 μL of serially diluted virus collections and left to infect at 37° C./5% CO2 for 4 hr. The infectious media was aspirated and replaced with 1 mL Plaque Assay Overlay (0.3% Avicel RC-591 (FMC Biopolymer UK, Girvan, Scotland)) in MEM, supplemented to a final concentration of 2% FCS), and left for 7 days at 37° C./5% CO2. Cells were fixed with ice-cold methanol for 10 min, then removed and cells subjected to two washes with sterile PBS. Cells were then stained with crystal violet solution (200 μL 0.1%, in distilled water) for 1 hr. Crystal violet solution was removed and cells rinsed with water before plaques were counted and virus titre enumerated.

With `Cc1cnc(N2CC3(CCOCC3)C2)c(C(=O)Nc2ccc(C(=O)N3CCc4cc(C(=O)Nc5c(F)cccc5F)sc4-c4sccc43)cc2)c1` [Example 1, N-(2,6-Difluorophenyl)-4-(4-(5-methyl-2-(7-oxa-2-azaspiro[3.5]nonan-2-yl)nicotinamido)benzoyl)-5,6-dihydro-4H-dithieno[3,2-b:2′,3′-d]azepine-8-carboxamide] as the compound, how does the pIC50 (RSV A2 strain) read?
Its pIC50 is 9.96.

And the inhibition at 0.01 µg/mL (RSV A2 strain)?
Its inhibition at 0.01 µg/mL is 100%.

What about the pIC50 (RSV B Washington strain) of the same compound?
Its pIC50 is 8.05.

What about the inhibition at 0.1 µg/mL (RSV B Washington strain) of the same compound?
Its inhibition at 0.1 µg/mL is 100%.

What about the CC50 at 5 days [1] of the same compound?
Its CC50 at 5 days is greater than 13.8 µM.

What about the pIC50 (RSV A2 [2]) of the same compound?
The pIC50 was 10.68.

What about the IC90 (RSV A2 [2]) of the same compound?
The IC90 was 0.078 nM.

What about the “inhibition of RSV NS-1 gene transcripts (in words)” value (RSV NS-1 gene) of the same compound?
Its value is “dose-dependent inhibition”.

And the “RSV NS1 gene transcript % inhibition” value (RSV NS-1 gene; 0.33 mg/mL)?
The value was −42%.

And the “RSV NS1 gene transcript (/β-actin), Median” value (RSV NS-1 gene; 0.33 mg/mL)?
The value was 4.4.

What about the “RSV NS1 gene transcript % inhibition” value (RSV NS-1 gene; 1.0 mg/mL) of the same compound?
Its value is 39%.

What about the “RSV NS1 gene transcript (/β-actin), Median” value (RSV NS-1 gene; 1.0 mg/mL) of the same compound?
The value was 1.9.

What about the “RSV NS1 gene transcript % inhibition” value (RSV NS-1 gene; 3.3 mg/mL) of the same compound?
Its value is 48%.

What about the “RSV NS1 gene transcript (/β-actin), Median” value (RSV NS-1 gene; 3.3 mg/mL) of the same compound?
The value was 1.6.

What about the “RSV NS1 gene transcript % inhibition” value (RSV NS-1 gene; 10 mg/mL) of the same compound?
Its value is 68%.

What about the “RSV NS1 gene transcript (/β-actin), Median” value (RSV NS-1 gene; 10 mg/mL) of the same compound?
The value was 1.0.

What about the “Virus titre in lung, Geometric Mean” value (hRSV/A/Long; intranasal, 0.1 mg/mL) of the same compound?
The value was 5.4 log, PFU/lung.

What about the “Virus titre in lung, Median” value (hRSV/A/Long; intranasal, 0.1 mg/mL) of the same compound?
Its value is 5.4 log, PFU/lung.

What about the “Virus titre in lung, Geometric Mean” value (hRSV/A/Long; intranasal, 0.33 mg/mL) of the same compound?
Its value is 5.0 log, PFU/lung.

What about the “Virus titre in lung, Median” value (hRSV/A/Long; intranasal, 0.33 mg/mL) of the same compound?
Its value is 5.0 log, PFU/lung.

And the “Virus titre in lung, Geometric Mean” value (hRSV/A/Long; intranasal, 1.0 mg/mL)?
Its value is 4.3 log, PFU/lung.

What about the “Virus titre in lung, Median” value (hRSV/A/Long; intranasal, 1.0 mg/mL) of the same compound?
Its value is 4.3 log, PFU/lung.

What about the “Virus titre in lung, Geometric Mean” value (hRSV/A/Long; intranasal, 3.3 mg/mL) of the same compound?
Its value is <2.3^2 log, PFU/lung.

And the “Virus titre in lung, Median” value (hRSV/A/Long; intranasal, 3.3 mg/mL)?
Its value is <2.3 log, PFU/lung.

And the “inhibition of viral titre in lung homogenates (in words)” value (hRSV/A/Long; intranasal, RSV/A/Long infected cotton rats)?
The value was “potent dose-dependent inhibition of viral titre; also recorded: completely inhibited virus titre”.

And the “inhibition of RANTES transcripts in lung (in words)” value (RANTES gene)?
The value was “dose-dependent inhibition”.

And the “RANTES gene transcript % Inhibition” value (RANTES gene; 0.33 mg/mL)?
Its value is −8%.

And the “RANTES gene transcript (/β-actin), Median” value (RANTES gene; 0.33 mg/mL)?
The value was 3.9.

And the “RANTES gene transcript % Inhibition” value (RANTES gene; 1.0 mg/mL)?
Its value is 36%.

What about the “RANTES gene transcript (/β-actin), Median” value (RANTES gene; 1.0 mg/mL) of the same compound?
Its value is 2.3.

What about the “RANTES gene transcript % Inhibition” value (RANTES gene; 3.3 mg/mL) of the same compound?
The value was 36%.

What about the “RANTES gene transcript (/β-actin), Median” value (RANTES gene; 3.3 mg/mL) of the same compound?
Its value is 2.3.

And the “RANTES gene transcript % Inhibition” value (RANTES gene; 10 mg/mL)?
The value was 61%.

And the “RANTES gene transcript (/β-actin), Median” value (RANTES gene; 10 mg/mL)?
Its value is 1.4.

And the “Virus titre in apical wash, geometric mean” value (shortened to “Virus titre in apical wash”) (RSV A2 [3]; day 0)?
The value was 0 log PFU/mL.

What about the “Virus titre in apical wash” value (RSV A2 [3]; day 1) of the same compound?
Its value is 2.14 log PFU/mL.

What about the “Virus titre in apical wash” value (RSV A2 [3]; day 2) of the same compound?
Its value is 3.05 log PFU/mL.

What about the “Virus titre in apical wash” value (RSV A2 [3]; day 3) of the same compound?
Its value is 5.18 log PFU/mL.

And the “Virus titre in apical wash” value (RSV A2 [3]; day 4)?
The value was 3.55 log PFU/mL.

What about the “Virus titre in apical wash” value (RSV A2 [3]; day 5) of the same compound?
Its value is 3.68 log PFU/mL.

What about the “Virus titre in apical wash” value (RSV A2 [3]; day 6) of the same compound?
Its value is 2.24 log PFU/mL.

What about the “Virus titre in apical wash” value (RSV A2 [3]; day 7) of the same compound?
Its value is 1.71 log PFU/mL.

What about the “inhibition of virus titre in ALI culture (in words)” value (RSV A2 [3]) of the same compound?
The value was “completely inhibited virus titre”.

What does the source list for `Cc1cnc(N2CC3(CCOCC3)C2)c(C(=O)Nc2ccc(C(=O)N3CCc4cc(C(=O)Nc5c(F)cccc5Cl)sc4-c4sccc43)cc2)c1` [Example 12, N-(2-chloro-6-fluorophenyl)-4-(4-(5-methyl-2-(7-oxa-2-azaspiro[3.5]nonan-2-yl)nicotinamido)benzoyl)-5,6-dihydro-4H-dithieno[3,2-b:2′,3′-d]azepine-8-carboxamide]?
pIC50 (RSV A2 strain): 9.85; inhibition at 0.01 µg/mL (RSV A2 strain): 84%; pIC50 (RSV B Washington strain): 8.51; inhibition at 1 µg/mL (RSV B Washington strain; HEp-2, at 1 μg/mL): 97%; CC50 at 5 days [1]: > 13.5 µM; reduction of virus titre (hRSV/A/Long; intra-nasal dosing at 1 mg/ml): 0.7 log; Virus titre in lung, Geometric Mean (hRSV/A/Long; intranasal, 1.0 mg/mL): 4.5 log, PFU/lung; Virus titre in lung, Median (hRSV/A/Long; intranasal, 1.0 mg/mL): 4.5 log, PFU/lung; Virus titre in apical wash, geometric mean (RSV A2 [3]; day 0): 0 log PFU/mL; Virus titre in apical wash, geometric mean (RSV A2 [3]; day 1): 2.57 log PFU/mL; Virus titre in apical wash, geometric mean (RSV A2 [3]; day 2): 4.86 log PFU/mL; Virus titre in apical wash, geometric mean (RSV A2 [3]; day 3): 5.27 log PFU/mL; Virus titre in apical wash, geometric mean (RSV A2 [3]; day 4): 4.71 log PFU/mL; Virus titre in apical wash, geometric mean (RSV A2 [3]; day 5): 3.45 log PFU/mL; Virus titre in apical wash, geometric mean (RSV A2 [3]; day 6): 2.62 log PFU/mL; Virus titre in apical wash, geometric mean (RSV A2 [3]; day 7): 1.22 log PFU/mL; inhibition of virus titre in ALI culture (in words) (RSV A2 [3]): completely inhibited virus titre

With `COc1cnc(N2CC3(CCOCC3)C2)c(C(=O)Nc2ccc(C(=O)N3CCc4cc(C(=O)Nc5c(F)cccc5F)sc4-c4sccc43)cc2)c1` [Example 20, N-(2,6-difluorophenyl)-4-(4-(5-methoxy-2-(7-oxa-2-azaspiro[3.5]nonan-2-yl)nicotinamido)benzoyl)-5,6-dihydro-4H-dithieno[3,2-b:2′,3′-d]azepine-8-carboxamide] as the compound, how does the pIC50 (RSV A2 strain) read?
Its pIC50 is 9.77.

What about the inhibition at 0.01 µg/mL (RSV A2 strain) of the same compound?
The inhibition at 0.01 µg/mL was 100%.

What about the pIC50 (RSV B Washington strain) of the same compound?
Its pIC50 is 7.74.

And the inhibition at 0.1 µg/mL (RSV B Washington strain)?
Its inhibition at 0.1 µg/mL is 100%.

What about the CC50 at 5 days [1] of the same compound?
The CC50 at 5 days was greater than 13.5 µM.
